# Experiments:
# Assay type in all cases: biochemical
# panel of 486 kinases = test: SelectScreen Whole Panel selectivity profile; details: 1 µM
# Protocol: We further evaluated the selectivity profile of compound 55 on a larger panel of kinases (SelectScreen Whole Panel, Life Technologies). The inhibition profile of 55, evaluated at 1 μM, is depicted on a dendrogram on Figure 3 where kinases inhibited by a minimum of 80% are shown. A full list of the kinases tested is shown on Table S1 in supplementary information.
# CAMK2A (CaMKII alpha) = CAMK2A (CaMKII alpha) (Homo sapiens, UniProt Q9UQM7); test: SelectScreen ZLYTE; details: ATP Km, read-out: Percentage of inhibition
# Procedure, shortened: (§1)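 Readout is % inhibition. The inhibitor was applied at 1 μM against every kinase of an extensive commercial panel.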
# CAMK4 (CaMKIV) = target: T1, CAMK4 (CaMKIV) (Homo sapiens, UniProt Q16566); test: SelectScreen ZLYTE; details: ATP Km, read-out: Percentage of inhibition
# T1 construct: purchased Life Technologies
# T1 sequence (Q16566 whole entry): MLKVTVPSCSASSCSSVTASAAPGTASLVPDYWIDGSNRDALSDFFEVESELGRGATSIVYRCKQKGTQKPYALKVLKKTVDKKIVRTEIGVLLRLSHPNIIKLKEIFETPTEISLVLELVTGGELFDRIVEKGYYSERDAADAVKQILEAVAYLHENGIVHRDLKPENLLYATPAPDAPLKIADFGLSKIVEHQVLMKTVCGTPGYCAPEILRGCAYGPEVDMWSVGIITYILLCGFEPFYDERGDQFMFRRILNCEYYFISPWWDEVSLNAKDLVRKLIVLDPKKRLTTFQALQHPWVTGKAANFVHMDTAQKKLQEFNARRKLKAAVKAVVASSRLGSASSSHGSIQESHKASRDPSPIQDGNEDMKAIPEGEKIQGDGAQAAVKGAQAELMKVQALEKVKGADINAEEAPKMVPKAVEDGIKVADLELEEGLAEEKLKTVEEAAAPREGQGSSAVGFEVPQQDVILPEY
# Procedure, shortened: as §1
# MET (cMet) Y1235D = target: T2, MET (cMet) Y1235D (Homo sapiens, UniProt P08581, Y1235D); test: SelectScreen ZLYTE; details: ATP Km, read-out: Percentage of inhibition
# T2 construct: purchased Life Technologies
# Procedure, shortened: as §1
# ABL1 F317I = ABL1 F317I (Homo sapiens, UniProt P00519, F317I); test: SelectScreen ZLYTE; details: ATP Km, read-out: Percentage of inhibition
# Procedure, shortened: as §1
# ABL1 G250E = target: T3, ABL1 G250E (Homo sapiens, UniProt P00519, G250E); test: SelectScreen ZLYTE; details: ATP Km, read-out: Percentage of inhibition
# T3 construct: purchased Life Technologies (SelectScreen Whole Panel service)
# Procedure, shortened: as §1
# PAK2 (PAK65) = PAK2 (PAK65) (Homo sapiens, UniProt Q13177); test: SelectScreen ZLYTE; details: ATP Km, read-out: Percentage of inhibition
# Procedure, shortened: as §1
# PEAK1 = target: T4, PEAK1 (Homo sapiens, UniProt Q9H792); test: SelectScreen ZLYTE; details: ATP Km, read-out: Percentage of inhibition
# T4 construct: purchased Life Technologies (SelectScreen Whole Panel)
# Procedure, shortened: as §1
# KIT V559D V654A = KIT V559D V654A (Homo sapiens, UniProt P10721, V559D/V654A); test: SelectScreen ZLYTE; details: ATP Km, read-out: Percentage of inhibition
# Procedure, shortened: as §1
# CDK5/p25 = target: T5, CDK5/p25 (Homo sapiens, UniProt Q00535); test: SelectScreen ZLYTE; details: ATP Km, read-out: Percentage of inhibition
# T5 construct: purchased Life Technologies
# Procedure, shortened: as §1
# EPHB3 = target: T6, EPHB3 (Homo sapiens, UniProt P54753); test: SelectScreen ZLYTE; details: ATP Km, read-out: Percentage of inhibition
# T6 construct: purchased Life Technologies (SelectScreen Whole Panel)
# T6 sequence (P54753 34-998): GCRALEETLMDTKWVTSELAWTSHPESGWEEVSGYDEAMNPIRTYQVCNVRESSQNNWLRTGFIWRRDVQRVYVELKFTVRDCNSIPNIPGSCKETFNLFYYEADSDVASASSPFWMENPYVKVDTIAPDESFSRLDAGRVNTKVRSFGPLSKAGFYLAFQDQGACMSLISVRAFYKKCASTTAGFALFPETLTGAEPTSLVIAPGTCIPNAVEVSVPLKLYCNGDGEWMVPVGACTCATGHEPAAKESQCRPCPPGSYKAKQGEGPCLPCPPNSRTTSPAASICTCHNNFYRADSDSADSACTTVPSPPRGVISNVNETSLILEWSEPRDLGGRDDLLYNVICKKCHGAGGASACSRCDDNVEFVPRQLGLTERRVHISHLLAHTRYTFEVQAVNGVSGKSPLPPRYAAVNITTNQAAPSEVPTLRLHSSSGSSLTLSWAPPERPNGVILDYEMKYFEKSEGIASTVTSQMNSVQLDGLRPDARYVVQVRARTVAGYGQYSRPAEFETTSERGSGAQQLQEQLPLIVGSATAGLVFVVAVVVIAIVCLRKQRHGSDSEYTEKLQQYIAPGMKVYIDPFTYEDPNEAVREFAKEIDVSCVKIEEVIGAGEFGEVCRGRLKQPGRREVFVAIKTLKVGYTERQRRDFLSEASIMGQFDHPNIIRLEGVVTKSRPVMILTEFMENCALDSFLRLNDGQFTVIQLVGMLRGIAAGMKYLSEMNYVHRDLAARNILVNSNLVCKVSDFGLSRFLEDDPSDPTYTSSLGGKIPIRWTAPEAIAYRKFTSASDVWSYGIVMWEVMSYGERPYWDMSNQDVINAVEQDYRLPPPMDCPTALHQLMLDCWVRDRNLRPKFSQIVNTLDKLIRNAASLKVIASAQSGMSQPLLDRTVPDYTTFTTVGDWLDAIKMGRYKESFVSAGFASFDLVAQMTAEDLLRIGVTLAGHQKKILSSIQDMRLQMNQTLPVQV
# Procedure, shortened: as §1
# EGFR (ErbB1) C797S = target: T7, EGFR (ErbB1) C797S (Homo sapiens, UniProt P00533, C797S); test: SelectScreen ZLYTE; details: ATP Km, read-out: Percentage of inhibition
# T7 construct: purchased Life Technologies
# Procedure, shortened: as §1
# CLK1 = target: T8, CLK1 (Homo sapiens, UniProt P49759); test: SelectScreen ZLYTE; details: ATP Km, read-out: Percentage of inhibition
# T8 construct: purchased Life Technologies (SelectScreen Whole Panel)
# Procedure, shortened: as §1
# MAPK7 (ERK5) = target: T9, MAPK7 (ERK5) (Homo sapiens, UniProt Q13164); test: SelectScreen ZLYTE; details: ATP Km, read-out: Percentage of inhibition
# T9 construct: purchased Life Technologies (SelectScreen)
# T9 sequence (Q13164 whole entry): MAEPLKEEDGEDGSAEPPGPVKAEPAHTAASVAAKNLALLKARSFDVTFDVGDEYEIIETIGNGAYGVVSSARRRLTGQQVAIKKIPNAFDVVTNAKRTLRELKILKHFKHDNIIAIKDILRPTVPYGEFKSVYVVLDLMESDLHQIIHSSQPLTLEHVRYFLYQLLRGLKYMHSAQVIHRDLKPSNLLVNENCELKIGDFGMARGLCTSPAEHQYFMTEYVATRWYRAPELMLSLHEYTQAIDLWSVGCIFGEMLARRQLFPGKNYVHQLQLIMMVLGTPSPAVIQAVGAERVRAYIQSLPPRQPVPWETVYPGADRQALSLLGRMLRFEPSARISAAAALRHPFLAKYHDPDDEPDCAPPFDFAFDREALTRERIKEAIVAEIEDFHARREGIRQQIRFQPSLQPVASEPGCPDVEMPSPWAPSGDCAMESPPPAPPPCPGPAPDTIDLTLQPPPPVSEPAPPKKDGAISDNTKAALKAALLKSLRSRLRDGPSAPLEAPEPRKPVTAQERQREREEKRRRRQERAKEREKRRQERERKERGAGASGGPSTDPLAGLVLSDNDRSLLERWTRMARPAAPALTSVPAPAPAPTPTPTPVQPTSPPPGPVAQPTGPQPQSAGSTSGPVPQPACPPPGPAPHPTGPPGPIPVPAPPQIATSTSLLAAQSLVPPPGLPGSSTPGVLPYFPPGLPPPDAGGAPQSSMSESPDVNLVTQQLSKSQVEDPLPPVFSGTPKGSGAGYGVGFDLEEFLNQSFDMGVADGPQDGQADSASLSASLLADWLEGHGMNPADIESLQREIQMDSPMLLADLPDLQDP
# Procedure, shortened: as §1
# EPHA5 = target: T10, EPHA5 (Homo sapiens, UniProt P54756); test: SelectScreen ZLYTE; details: ATP Km, read-out: Percentage of inhibition
# T10 construct: purchased Life Technologies (SelectScreen Whole Panel service)
# Procedure, shortened: as §1
# IRAK4 = IRAK4 (Homo sapiens, UniProt Q9NWZ3); test: SelectScreen ZLYTE; details: ATP Km, read-out: Percentage of inhibition
# Procedure, shortened: as §1
# ABL1 Y253F = target: T11, ABL1 Y253F (Homo sapiens, UniProt P00519, Y253F); test: SelectScreen ZLYTE; details: ATP Km, read-out: Percentage of inhibition
# T11 construct: purchased Life Technologies (SelectScreen Whole Panel)
# Procedure, shortened: as §1
# STK22D (TSSK1) = target: T12, STK22D (TSSK1) (Homo sapiens, UniProt Q9BXA7); test: SelectScreen ZLYTE; details: ATP Km, read-out: Percentage of inhibition
# T12 construct: purchased Life Technologies (SelectScreen Whole Panel service)
# Procedure, shortened: as §1
# INSR = INSR (Homo sapiens, UniProt P06213); test: SelectScreen ZLYTE; details: ATP Km, read-out: Percentage of inhibition
# Procedure, shortened: as §1
# CLK3 = CLK3 (Homo sapiens, UniProt P49761); test: SelectScreen ZLYTE; details: ATP Km, read-out: Percentage of inhibition
# Procedure, shortened: as §1
# MAP2K6 (MKK6) = target: T13, MAP2K6 (MKK6) (Homo sapiens, UniProt P52564); test: SelectScreen ZLYTE; details: ATP 100 µM, read-out: Percentage of inhibition
# T13 construct: purchased Life Technologies (SelectScreen Whole Panel service)
# Procedure, shortened: as §1
# CSF1R (FMS) = CSF1R (FMS) (Homo sapiens, UniProt P07333); test: SelectScreen ZLYTE; details: ATP Km, read-out: Percentage of inhibition
# Procedure, shortened: as §1
# GSK3B (GSK3 beta) = target: T14, GSK3B (GSK3 beta) (Homo sapiens, UniProt P49841); test: SelectScreen ZLYTE; details: ATP Km, read-out: Percentage of inhibition
# T14 construct: purchased Life Technologies (SelectScreen service)
# Procedure, shortened: as §1
# [1] = target: EGFR (ErbB1) T790M C797S L858R (Homo sapiens, UniProt P00533, C797S/L858R/T790M); test: SelectScreen ZLYTE; details: ATP Km, read-out: Percentage of inhibition
# Chain of EGFR (ErbB1) T790M C797S L858R (P00533 25-1210 T790M/C797S/L858R): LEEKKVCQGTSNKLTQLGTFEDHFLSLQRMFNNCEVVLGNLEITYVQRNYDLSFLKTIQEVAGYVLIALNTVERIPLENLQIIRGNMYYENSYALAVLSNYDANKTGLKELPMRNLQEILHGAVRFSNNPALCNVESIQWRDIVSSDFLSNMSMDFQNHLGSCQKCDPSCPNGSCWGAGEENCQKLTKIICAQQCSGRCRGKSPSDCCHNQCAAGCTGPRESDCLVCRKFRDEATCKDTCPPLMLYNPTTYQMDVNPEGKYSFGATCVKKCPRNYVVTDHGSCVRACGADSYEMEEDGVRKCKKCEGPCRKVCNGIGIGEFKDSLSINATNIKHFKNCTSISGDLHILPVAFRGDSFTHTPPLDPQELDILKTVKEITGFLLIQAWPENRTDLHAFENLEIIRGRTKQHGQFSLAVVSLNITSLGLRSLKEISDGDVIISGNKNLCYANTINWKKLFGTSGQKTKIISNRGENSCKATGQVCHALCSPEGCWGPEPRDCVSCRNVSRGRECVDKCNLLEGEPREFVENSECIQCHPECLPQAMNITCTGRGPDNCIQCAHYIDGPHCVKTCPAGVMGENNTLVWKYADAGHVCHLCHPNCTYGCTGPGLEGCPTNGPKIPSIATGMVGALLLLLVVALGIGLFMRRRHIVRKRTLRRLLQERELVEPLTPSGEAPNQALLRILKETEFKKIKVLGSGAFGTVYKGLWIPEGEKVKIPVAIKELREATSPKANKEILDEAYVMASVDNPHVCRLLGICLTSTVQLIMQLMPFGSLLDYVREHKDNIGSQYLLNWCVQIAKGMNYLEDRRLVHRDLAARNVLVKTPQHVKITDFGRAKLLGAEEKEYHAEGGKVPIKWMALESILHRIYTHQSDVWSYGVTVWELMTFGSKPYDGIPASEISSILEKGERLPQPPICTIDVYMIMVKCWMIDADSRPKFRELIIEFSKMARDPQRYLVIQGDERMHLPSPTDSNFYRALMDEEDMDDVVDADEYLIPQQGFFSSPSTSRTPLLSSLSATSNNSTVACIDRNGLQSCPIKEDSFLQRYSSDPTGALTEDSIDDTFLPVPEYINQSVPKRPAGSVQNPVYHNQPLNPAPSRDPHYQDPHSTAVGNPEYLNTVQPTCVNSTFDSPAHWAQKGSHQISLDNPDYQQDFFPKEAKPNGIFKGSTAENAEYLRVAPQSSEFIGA
# Procedure, shortened: as §1
# CAMK2D (CaMKII delta) = target: T15, CAMK2D (CaMKII delta) (Homo sapiens, UniProt Q13557); test: SelectScreen ZLYTE; details: ATP Km, read-out: Percentage of inhibition
# T15 construct: purchased Life Technologies (SelectScreen Whole Panel)
# Procedure, shortened: as §1
# PRKCZ (PKC zeta) = PRKCZ (PKC zeta) (Homo sapiens, UniProt Q05513); test: SelectScreen ZLYTE; details: ATP Km, read-out: Percentage of inhibition
# Procedure, shortened: as §1
# KIT V559D = target: T16, KIT V559D (Homo sapiens, UniProt P10721, V559D); test: SelectScreen ZLYTE; details: ATP Km, read-out: Percentage of inhibition
# T16 construct: purchased Life Technologies
# Procedure, shortened: as §1
# HIPK3 (YAK1) = target: T17, HIPK3 (YAK1) (Homo sapiens, UniProt Q9H422); test: SelectScreen ZLYTE; details: ATP Km, read-out: Percentage of inhibition
# T17 construct: purchased Life Technologies
# Procedure, shortened: as §1
# PLK2 = target: T18, PLK2 (Homo sapiens, UniProt Q9NYY3); test: SelectScreen ZLYTE; details: ATP Km, read-out: Percentage of inhibition
# T18 construct: purchased Life Technologies (SelectScreen service)
# T18 sequence (Q9NYY3 whole entry): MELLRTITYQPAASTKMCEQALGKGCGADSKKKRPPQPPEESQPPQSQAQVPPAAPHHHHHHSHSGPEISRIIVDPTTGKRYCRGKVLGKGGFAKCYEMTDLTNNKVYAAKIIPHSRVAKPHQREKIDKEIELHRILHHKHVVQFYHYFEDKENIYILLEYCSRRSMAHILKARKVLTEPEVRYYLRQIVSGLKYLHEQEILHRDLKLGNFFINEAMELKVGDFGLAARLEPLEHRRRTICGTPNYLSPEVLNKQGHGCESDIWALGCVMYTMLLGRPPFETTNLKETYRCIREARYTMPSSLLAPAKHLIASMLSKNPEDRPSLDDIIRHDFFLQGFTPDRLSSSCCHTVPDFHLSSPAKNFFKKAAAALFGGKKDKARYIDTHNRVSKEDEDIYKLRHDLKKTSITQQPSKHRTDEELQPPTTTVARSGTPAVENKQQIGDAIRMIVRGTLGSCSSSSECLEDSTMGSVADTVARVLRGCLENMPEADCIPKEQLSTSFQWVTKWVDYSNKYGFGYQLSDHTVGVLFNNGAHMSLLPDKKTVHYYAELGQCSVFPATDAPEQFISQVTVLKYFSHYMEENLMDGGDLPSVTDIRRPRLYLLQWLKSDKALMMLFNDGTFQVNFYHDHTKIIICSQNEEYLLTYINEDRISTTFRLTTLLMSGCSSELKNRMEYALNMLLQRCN
# Procedure, shortened: as §1
# JAK3 = target: T19, JAK3 (Homo sapiens, UniProt P52333); test: SelectScreen ZLYTE; details: ATP Km, read-out: Percentage of inhibition
# T19 construct: purchased Life Technologies (SelectScreen service)
# Procedure, shortened: as §1
# ROCK1 = target: T20, ROCK1 (Homo sapiens, UniProt Q13464); test: SelectScreen ZLYTE; details: ATP Km, read-out: Percentage of inhibition
# T20 construct: purchased Life Technologies (SelectScreen Whole Panel service)
# Procedure, shortened: as §1
# PRKD2 (PKD2) = target: T21, PRKD2 (PKD2) (Homo sapiens, UniProt Q9BZL6); test: SelectScreen ZLYTE; details: ATP Km, read-out: Percentage of inhibition
# T21 construct: purchased Life Technologies
# T21 sequence (Q9BZL6 whole entry): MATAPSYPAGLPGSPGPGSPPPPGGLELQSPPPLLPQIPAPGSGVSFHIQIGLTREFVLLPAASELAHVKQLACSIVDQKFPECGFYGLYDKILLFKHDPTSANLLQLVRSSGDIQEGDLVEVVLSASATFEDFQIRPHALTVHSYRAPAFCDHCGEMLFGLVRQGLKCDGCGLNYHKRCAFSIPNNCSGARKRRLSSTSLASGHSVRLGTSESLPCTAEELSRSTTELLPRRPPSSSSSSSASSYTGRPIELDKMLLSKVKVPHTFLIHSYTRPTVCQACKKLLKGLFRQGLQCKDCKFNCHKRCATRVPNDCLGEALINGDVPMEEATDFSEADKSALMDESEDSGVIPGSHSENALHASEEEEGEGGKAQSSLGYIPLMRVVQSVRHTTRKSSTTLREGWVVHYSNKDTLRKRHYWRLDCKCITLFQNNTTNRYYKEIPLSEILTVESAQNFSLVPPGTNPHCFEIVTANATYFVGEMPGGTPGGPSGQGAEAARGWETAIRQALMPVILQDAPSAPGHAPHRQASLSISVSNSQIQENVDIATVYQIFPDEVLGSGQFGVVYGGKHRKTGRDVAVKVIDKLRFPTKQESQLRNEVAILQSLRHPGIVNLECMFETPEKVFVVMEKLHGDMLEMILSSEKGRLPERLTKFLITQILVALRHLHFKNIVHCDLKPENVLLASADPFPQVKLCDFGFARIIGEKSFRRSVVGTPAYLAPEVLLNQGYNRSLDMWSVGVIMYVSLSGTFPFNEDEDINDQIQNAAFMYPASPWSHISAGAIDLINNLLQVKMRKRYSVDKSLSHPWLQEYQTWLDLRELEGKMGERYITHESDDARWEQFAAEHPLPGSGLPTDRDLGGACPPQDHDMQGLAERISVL
# Procedure, shortened: as §1
# MAPK13 (p38 delta) = MAPK13 (p38 delta) (Homo sapiens, UniProt O15264); test: SelectScreen ZLYTE; details: ATP Km, read-out: Percentage of inhibition
# Procedure, shortened: as §1
# PDGFRA D842V = target: T22, PDGFRA D842V (Homo sapiens, UniProt P16234, D842V); test: SelectScreen ZLYTE; details: ATP Km, read-out: Percentage of inhibition
# T22 construct: purchased Life Technologies (SelectScreen Whole Panel service)
# Procedure, shortened: as §1
# PRKACA (PKA) = target: T23, PRKACA (PKA) (Homo sapiens, UniProt P17612); test: SelectScreen ZLYTE; details: ATP Km, read-out: Percentage of inhibition
# T23 construct: purchased Life Technologies (SelectScreen)
# Procedure, shortened: as §1
# NTRK1 (TRKA) = NTRK1 (TRKA) (Homo sapiens, UniProt P04629); test: SelectScreen ZLYTE; details: ATP Km, read-out: Percentage of inhibition
# Procedure, shortened: as §1
# PRKCE (PKC epsilon) = target: T24, PRKCE (PKC epsilon) (Homo sapiens, UniProt Q02156); test: SelectScreen ZLYTE; details: ATP Km, read-out: Percentage of inhibition
# T24 construct: purchased Life Technologies (SelectScreen Whole Panel service)
# Procedure, shortened: as §1
compound,measurement,setting,value
"COc1ccc2[nH]c3c(=O)[nH]c4ccc(O)cc4c3c2c1 [Compound 55, 2-Hydroxy-10-methoxy-5,7-dihydro-6H-indolo[2,3-c]quinolin-6-one]",Number of the 486 kinases inhibited by >50%,panel of 486 kinases,159
same,inhibition at 1 µM,CAMK2A (CaMKII alpha),20%
same,inhibition at 1 µM,CAMK4 (CaMKIV),41%
same,inhibition at 1 µM,MET (cMet) Y1235D,2%
same,inhibition at 1 µM,ABL1 F317I,14%
same,inhibition at 1 µM,ABL1 G250E,48%
same,inhibition at 1 µM,PAK2 (PAK65),6%
same,inhibition at 1 µM,PEAK1,50%
same,inhibition at 1 µM,KIT V559D V654A,19%
same,inhibition at 1 µM,CDK5/p25,33%
same,inhibition at 1 µM,EPHB3,-9%
same,inhibition at 1 µM,EGFR (ErbB1) C797S,4%
same,inhibition at 1 µM,CLK1,98%
same,inhibition at 1 µM,MAPK7 (ERK5),8%
same,inhibition at 1 µM,EPHA5,18%
same,inhibition at 1 µM,IRAK4,61%
same,inhibition at 1 µM,ABL1 Y253F,55%
same,inhibition at 1 µM,STK22D (TSSK1),19%
same,inhibition at 1 µM,INSR,21%
same,inhibition at 1 µM,CLK3,57%
same,inhibition at 1 µM,MAP2K6 (MKK6),11%
same,inhibition at 1 µM,CSF1R (FMS),63%
same,inhibition at 1 µM,GSK3B (GSK3 beta),81%
same,inhibition at 1 µM,[1],13%
same,inhibition at 1 µM,CAMK2D (CaMKII delta),50%
same,inhibition at 1 µM,PRKCZ (PKC zeta),7%
same,inhibition at 1 µM,KIT V559D,37%
same,inhibition at 1 µM,HIPK3 (YAK1),35%
same,inhibition at 1 µM,PLK2,74%
same,inhibition at 1 µM,JAK3,79%
same,inhibition at 1 µM,ROCK1,11%
same,inhibition at 1 µM,PRKD2 (PKD2),39%
same,inhibition at 1 µM,MAPK13 (p38 delta),20%
same,inhibition at 1 µM,PDGFRA D842V,49%
same,inhibition at 1 µM,PRKACA (PKA),8%
same,inhibition at 1 µM,NTRK1 (TRKA),69%
same,inhibition at 1 µM,PRKCE (PKC epsilon),10%

# Reference: article PMC9186362, “Design and biological evaluation of substituted 5,7-dihydro-6H-indolo[2,3-c]quinolin-6-one as novel selective Haspin inhibitors” (Journal of Enzyme Inhibition and Medicinal Chemistry, 2022)
